Measured values taken from patent publication US20160037775A1, “ACTIVE INGREDIENT COMBINATIONS HAVING INSECTICIDAL AND ACARICIDAL PROPERTIES” (priority 2010, published 2016).

Legend:
Test in all cases: whole plant or invertebrate
Format in all cases: in vivo
Phaedon cochleariae = system: Phaedon cochleariae
Description: The expected action for a given combination of two active ingredients can be calculated according to S. R. Colby, Weeds 15 (1967), 20-22 as follows:
• X is the kill rate, expressed in % of the untreated control, in the case of use of active ingredient A in an application rate of m g/ha or in a concentration of m ppm, • Y is the kill rate, expressed in % of the untreated control, in the case of use of active ingredient B in an application rate of n g/ha or in a concentration of n ppm, and • E is the kill rate, expressed in % of the untreated control, in the case of use of active ingredients A and B in application rates of m and n g/ha or in a concentration of m and n ppm, then
(§1) If the actual kill rate is greater than that calculated, the kill rate of the combination is superadditive, which means that a synergistic effect is present. In this case, the kill rate actually observed must be greater than the value calculated from the above formula for the expected kill rate (E).
(§2) • 78 parts by weight of acetone • 1.5 parts by weight of dimethylformamide Emulsifier: 0.5 part by weight of alkylaryl polyglycol ether
(§3) To produce an appropriate active ingredient formulation, 1 part by weight of active ingredient is mixed with the stated amounts of solvent and emulsifier, and the concentrate is diluted with emulsifier-containing water to the desired concentration.
Cabbage leaves (Brassica oleracea) are treated by spraying with the active ingredient formulation of the desired concentration and populated with larvae of the mustard beetle (Phaedon cochleariae) while the leaves are still moist.
After the desired period of time, the kill rate in % is determined. 100% means that all beetle larvae have been killed; 0% means that none of the beetle larvae have been killed. The kill rates determined are entered into Colby's formula.

Spodoptera frugiperda = conditions: Spodoptera frugiperda, 144 h, after 6 d, read-out: Kill rate in % after 6 d
Description: as §1, §2, §3
After the desired time, the kill in % is determined. 100% means that all caterpillars have been killed; 0% means that none of the caterpillars have been killed. The kill rates determined are entered into Colby's formula.

Myzus persicae = conditions: Myzus persicae, 144 h; 4 g/ha; after 6 d; read-out: Kill rate in % after 6 d
Description: as §1, §2, §3
After the desired time, the kill in % is determined. 100% means that all aphids have been killed; 0% means that no aphids have been killed. The kill rates determined are entered into Colby's formula.

CCc1ccc(C(=O)NN(C(=O)c2cc(C)cc(C)c2)C(C)(C)C)cc1 [tebufenozide]
0%: Kill rate in % after 2 d (Phaedon cochleariae; 4 g/ha, after 2 d) | pest or weed control at 0.16 g/ha (Spodoptera frugiperda; 0.16 g/ha) | pest or weed control at 4 g/ha (Myzus persicae)

COc1cccc(C(=O)NN(C(=O)c2cc(C)cc(C)c2)C(C)(C)C)c1C [methoxyfenozide]
0%: pest or weed control at 0.8 g/ha (Phaedon cochleariae; Phaedon cochleariae, 144 h, 0.8 g/ha, after 6 d, read-out: Kill rate in % after 6 d) | pest or weed control at 0.8 g/ha (Spodoptera frugiperda; 0.8 g/ha) | pest or weed control at 4 g/ha (Myzus persicae)
